Source: patent US9266908B2, “Inhibitors of arginase and their therapeutic applications” (MARS, INCORPORATED, priority 2011, dated 2016)
pIC50: −log10 of the molar value.

Experiments:
arginase II (ARG II) = target: T1, arginase II (ARG II) (Homo sapiens, UniProt P78540); assay: Inhibition of arginase II, spectrophotometric urea assay at 530 nm
T1 sequence (P78540 23-354): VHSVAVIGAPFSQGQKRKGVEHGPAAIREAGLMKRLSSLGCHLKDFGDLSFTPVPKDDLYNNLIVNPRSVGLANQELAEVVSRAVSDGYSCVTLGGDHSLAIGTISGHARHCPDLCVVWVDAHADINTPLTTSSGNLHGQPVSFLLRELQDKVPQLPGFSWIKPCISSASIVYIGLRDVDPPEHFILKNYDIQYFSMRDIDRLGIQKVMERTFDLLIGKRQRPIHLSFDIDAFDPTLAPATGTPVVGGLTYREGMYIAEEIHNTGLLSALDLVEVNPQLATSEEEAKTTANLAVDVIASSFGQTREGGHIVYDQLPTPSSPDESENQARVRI
Experimental: (§1) Inhibition of arginase I (ARG I) and arginase II (ARG II) by the inventive compounds is followed spectrophotometrically at 530 nm. […] Solutions of arginase I and II are prepared in 100 mM sodium phosphate buffer, pH 7.4 containing 1 mg/ml of OVA to give an arginase stock solution at a final concentration of 100 ng/ml.
(§2) To each well of a 96-well microtiter plate is add 40 μl of enzyme, 10 μl of an inventive compound and 10 μl of enzyme substrate (L-arginine+ manganese sulfate). For wells that are used as positive controls, only the enzyme and its substrate are added, while wells used as negative controls contain only manganese sulfate.
(§3) After incubating the microtiter plate at 37° C. for 60 minutes, 150 μl of a urea reagent obtained by combining equal proportions (1:1) of reagents A and B is added to each well of the microtiter plate to stop the reaction. The urea reagent is made just before use by combining Reagent A (10 mM o-phthaldialdehyde, and 0.4% polyoxyethylene (23) lauryl ether (w/v) in 1.8 M sulfuric acid) with Reagent B (1.3 mM primaquine diphosphate, 0.4% polyoxyethylene (23) lauryl ether (w/v), 130 mM boric acid in 3.6 M sulfuric acid). After quenching the reaction mixture, the microtiter plate is allowed to stand for an additional 10 minutes at room temperature to allow color development. […] The normalized OD is then used to generate a dose-response curve by plotting the normalized OD values against log [concentration] and using regression analysis to compute the IC50 values.

human arginase I (ARG I) = target: T2, human arginase I (ARG I) (Homo sapiens, UniProt P05089); assay: Inhibition of arginase I, spectrophotometric urea assay at 530 nm
T2 sequence (P05089 1-322): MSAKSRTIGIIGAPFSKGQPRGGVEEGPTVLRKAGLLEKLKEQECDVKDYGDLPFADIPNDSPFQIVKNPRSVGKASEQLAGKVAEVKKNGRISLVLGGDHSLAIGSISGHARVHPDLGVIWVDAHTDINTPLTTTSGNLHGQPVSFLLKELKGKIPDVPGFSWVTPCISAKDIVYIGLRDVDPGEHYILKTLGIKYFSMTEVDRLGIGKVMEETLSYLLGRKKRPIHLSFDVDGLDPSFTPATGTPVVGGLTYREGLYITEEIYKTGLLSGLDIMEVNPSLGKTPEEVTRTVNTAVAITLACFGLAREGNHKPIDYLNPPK
Experimental: as §1, §2, §3

human-Arginase-1 = target: T3, human-Arginase-1 (Homo sapiens, UniProt P05089); assay: Urea production in CHOK cells stably transfected with human-Arginase-1; assay type: cell-based; conditions: IC50 class, 5 mM arginine, 24 hours, read-out: CHOK Cell
T3 construct: expressed in transfected cells; host or cells: CHOK cells
T3 sequence (P05089 1-322): T2 sequence (P05089 1-322)
Experimental: Table 3 also provides CHOK cell based IC50 values for illustrative arginase inhibitors. IC50 values were determined by measuring the production of urea in CHOK cells stably transfected with human-Arginase-1.
Briefly, CHOK cells were stably transfected with human-arginase-1. To determiner the IC50 values for compounds in accordance with the present invention, parental CHOK cells and arginase-1 stably transfected cells were plated in a 96 well plate. Cells were plated using 200 μl of complete growth medium and incubated overnight at 37° C.
Media from each of the wells containing cells was first removed and growth media supplemented with arginine at a concentration of 5 mM was added to each well. The test compounds were dissolved in PBS buffer to the desired concentration and added to appropriate wells. The plate was then incubated at 37° C. for 24 hours. After 24 hours the plates were spun down at 3000 RPM for 5 min and 50 μl of the media were transferred to a new plate.
An aqueous solution of o-phthaldehyde, Brij, sulfuric acid, primaquine diphosphate and boric acid was added to each well and the plate was incubated for 10-15 minutes. The urea concentration in each well was determined by measuring the optical density at 520-530 nanometers using a standard curve. The IC50 values were calculated by measuring urea production at various concentrations of the inventive arginase inhibitors after subtracting the value related to the concentration of urea in control wells.

SMILES	pIC50 (arginase II (ARG II))	pIC50 (human arginase I (ARG I))	pIC50 (human-Arginase-1)
Cc1ccc(F)c(-c2ccc(CN[C@H]3C[C@@H](C(N)(CCCCB(O)O)C(=O)O)C3)cc2F)c1 (mixture of isomers) [Example 52, (S)-2-amino-6-borono-2-((1s,3R)-3-((2,2′-difluoro-5′-methylbiphenyl-4-yl)methylamino)cyclobutyl)hexanoic acid]	7.60 to 10.00	7.60 to 10.00	4.60 to 6.00
NC(CCCCB(O)O)(C(=O)O)[C@H]1C[C@@H](NCc2ccc(-c3ccc(F)cc3)c(F)c2)C1 (mixture of isomers) [Example 53, (S)-2-amino-6-borono-2-((1s,3R)-3-((2,4′-difluorobiphenyl-4-yl)methylamino)cyclobutyl)hexanoic acid]	7.00 to 7.59	7.60 to 10.00	4.00 to 4.59
NC(CCCCB(O)O)(C(=O)O)[C@H]1C[C@@H](NCc2ccc(-c3ccc(F)cc3F)c(F)c2)C1 (mixture of isomers) [Example 55, (S)-2-amino-6-borono-2-((1s,3R)-3-((2,2′,4′-trifluorobiphenyl-4-yl)methylamino)cyclobutyl)hexanoic acid]	7.00 to 7.59	7.00 to 7.59	4.00 to 4.59
NC(CCCCB(O)O)(C(=O)O)[C@H]1C[C@@H](NCc2ccc(Cc3ccccc3)cc2)C1 (mixture of isomers) [Example 57, (S)-2-amino-2-((1s,3R)-3-(4-benzylbenzylamino)cyclobutyl)-6-boronohexanoic acid]	7.00 to 7.59	7.00 to 7.59	4.00 to 4.59
NC(CCCCB(O)O)(C(=O)O)[C@H]1C[C@@H](NCc2c(F)cc(-c3ccc(Cl)cc3)cc2F)C1 (mixture of isomers) [Example 58, (S)-2-amino-6-borono-2-((1s,3R)-3-((4′-chloro-3,5-difluorobiphenyl-4-yl)methylamino)cyclobutyl)hexanoic acid]	7.00 to 7.59	7.00 to 7.59	4.60 to 6.00
NC(CCCCB(O)O)(C(=O)O)[C@H]1CC[C@H](NCc2ccc(-c3ccccc3)cc2)C1 (stereo in doubt) [Example 43]	7.00 to 7.59	7.00 to 7.59	4.00 to 4.59
NC(CCCCB(O)O)(C(=O)O)[C@H]1C[C@@H](NC2Cc3ccccc3C2)C1 (stereo partly drawn) [Example 5, (S)-2-amino-6-borono-2-((1s,3R)-3-(2,3-dihydro-1H-inden-2-ylamino)cyclobutyl)hexanoic acid]	7.00 to 7.59	7.60 to 10.00	4.60 to 6.00
NC(CCCCB(O)O)(C(=O)O)[C@H]1C[C@@H](NCc2cccc(-c3ccc(C(F)(F)F)cc3)c2)C1 (stereo partly drawn) [Example 8, (S)-2-amino-6-borono-2-((1s,3R)-3-((4′-(trifluoromethyl)biphenyl-3-yl)methylamino)cyclobutyl)hexanoic acid]	7.60 to 10.00	7.60 to 10.00	4.60 to 6.00
NC(CCCCB(O)O)(C(=O)O)[C@H]1C[C@@H](NCc2cccc(-c3ccc(Cl)cc3)c2)C1 (stereo partly drawn) [Example 9, (S)-2-amino-6-borono-2-((1s,3R)-3-((4′-chlorobiphenyl-3-yl)methylamino)cyclobutyl)hexanoic acid]	7.60 to 10.00	7.60 to 10.00	4.00 to 4.59
NC(CCCCB(O)O)(C(=O)O)[C@H]1C[C@@H](NCc2cccc3c(F)cccc23)C1 (stereo partly drawn) [Example 11, (S)-2-amino-6-borono-2-((1s,3R)-3-((5-fluoronaphthalen-1-yl)methylamino)cyclobutyl)hexanoic acid]	7.00 to 7.59	7.60 to 10.00	4.60 to 6.00
NC(CCCCB(O)O)(C(=O)O)[C@H]1C[C@@H](NCc2ccc3c(c2)CCO3)C1 (stereo partly drawn) [Example 15, (S)-2-amino-6-borono-2-((1s,3R)-3-((2,3-dihydrobenzofuran-5-yl)methylamino)cyclobutyl)hexanoic acid]	7.00 to 7.59	7.00 to 7.59	4.60 to 6.00
NC(CCCCB(O)O)(C(=O)O)[C@H]1C[C@@H](NCc2ccc(-c3ccc(Cl)c(Cl)c3)cc2)C1 (stereo partly drawn) [Example 16, (S)-2-amino-6-borono-2-((1s,3R)-3-((3′,4′-dichlorobiphenyl-4-yl)methylamino)cyclobutyl)hexanoic acid]	7.60 to 10.00	7.60 to 10.00	4.60 to 6.00
NC(CCCCB(O)O)(C(=O)O)[C@H]1C[C@@H](NCc2ccc(-c3ccc(Cl)cc3)cc2)C1 (stereo partly drawn) [Example 17, (S)-2-amino-6-borono-2-((1s,3R)-3-((4′-chlorobiphenyl-4-yl)methylamino)cyclobutyl)hexanoic acid]	7.60 to 10.00	7.60 to 10.00	4.60 to 6.00
NC(CCCCB(O)O)(C(=O)O)[C@H]1C[C@@H](NCc2ccc(-c3ccc(C(F)(F)F)cc3)cc2)C1 (stereo partly drawn) [Example 18, (S)-2-amino-6-borono-2-((1s,3R)-3-((4′-(trifluoromethyl)biphenyl-4-yl)methylamino)cyclobutyl)hexanoic acid]	7.60 to 10.00	7.60 to 10.00	4.60 to 6.00
NC(CCCCB(O)O)(C(=O)O)[C@H]1C[C@@H](NCc2ccc(-c3ccc(F)cc3)cc2)C1 (stereo partly drawn) [Example 19, (S)-2-amino-6-borono-2-((1s,3R)-3-((4′-fluorobiphenyl-4-yl)methylamino)cyclobutyl)hexanoic acid]	7.00 to 7.59	7.60 to 10.00	4.00 to 4.59
NC(CCCCB(O)O)(C(=O)O)[C@H]1C[C@@H](NCc2ccccc2-c2ccc(Cl)cc2)C1 (stereo partly drawn) [Example 22, (S)-2-amino-6-borono-2-((1s,3R)-3-((4′-chlorobiphenyl-2-yl)methylamino)cyclobutyl)hexanoic acid]	7.00 to 7.59	7.00 to 7.59	4.00 to 4.59
NC(CCCCB(O)O)(C(=O)O)[C@H]1C[C@@H](NCc2ccc(-c3ccccc3)nc2)C1 (stereo partly drawn) [Example 23, (S)-2-amino-6-borono-2-((1s,3R)-3-((6-phenylpyridin-3-yl)methylamino)cyclobutyl)hexanoic acid]	7.60 to 10.00	7.00 to 7.59	4.60 to 6.00

Now from value to compound:

pIC50 (arginase II (ARG II))	pIC50 (human arginase I (ARG I))	pIC50 (human-Arginase-1)	SMILES
7.00 to 7.59	7.00 to 7.59	4.00 to 4.59	NC(CCCCB(O)O)(C(=O)O)[C@H]1C[C@@H](NCc2ccc(-c3ccccc3F)c(F)c2)C1 (mixture of isomers) [Example 54, (S)-2-amino-6-borono-2-((1s,3R)-3-((2,2′-difluorobiphenyl-4-yl)methylamino)cyclobutyl)hexanoic acid]
7.00 to 7.59	7.60 to 10.00	4.00 to 4.59	NC(CCCCB(O)O)(C(=O)O)[C@H]1C[C@@H](NCC2CCN(c3ccc(C(F)(F)F)cc3)CC2)C1 (mixture of isomers) [Example 60, (S)-2-amino-6-borono-2-((1s,3R)-3-((1-(4-(trifluoromethyl)phenyl)piperidin-4-yl)methylamino)cyclobutyl)hexanoic acid]
7.00 to 7.59	7.00 to 7.59	4.00 to 4.59	CC(C)(C)c1ccc(CN[C@H]2C[C@@H](C(N)(CCCCB(O)O)C(=O)O)C2)cc1 (stereo partly drawn) [Example 6, (S)-2-amino-6-borono-2-((1s,3R)-3-(4-tert-butylbenzylamino)cyclobutyl)hexanoic acid]
7.60 to 10.00	7.60 to 10.00	4.60 to 6.00	NC(CCCCB(O)O)(C(=O)O)[C@H]1C[C@@H](NCc2ccc(F)c3ccccc23)C1 (stereo partly drawn) [Example 10, (S)-2-amino-6-borono-2-((1s,3R)-3-((4-fluoronaphthalen-1-yl)methylamino)cyclobutyl)hexanoic acid]
7.60 to 10.00	7.00 to 7.59	4.00 to 4.59	NC(CCCCB(O)O)(C(=O)O)[C@H]1C[C@@H](NCc2c3ccccc3cc3ccccc23)C1 (stereo partly drawn) [Example 12, (S)-2-amino-2-((1s,3R)-3-(anthracen-9-ylmethylamino)cyclobutyl)-6-boronohexanoic acid]
7.00 to 7.59	7.00 to 7.59	4.00 to 4.59	NC(CCCCB(O)O)(C(=O)O)[C@H]1C[C@@H](NCc2ccccc2N2CCOCC2)C1 (stereo partly drawn) [Example 13, (S)-2-amino-6-borono-2-((1s,3R)-3-(2-morpholinobenzylamino)cyclobutyl)hexanoic acid]
7.60 to 10.00	7.60 to 10.00	4.00 to 4.59	NC(CCCCB(O)O)(C(=O)O)[C@H]1C[C@@H](NCc2ccc(Oc3ccc(Cl)cc3)cc2)C1 (stereo partly drawn) [Example 21, (S)-2-amino-6-borono-2-((1s,3R)-3-(4-(4-chlorophenoxy)benzylamino)cyclobutyl)hexanoic acid]
